In BigSolDB 2.1:

O=C(Nc1ccc(Cl)cc1)Nc1ccc(Cl)c(Cl)c1
solubility (mole fraction)
Settings	288.15 K	293.15 K	298.15 K	303.15 K	308.15 K	313.15 K	318.15 K
in 1,4-dioxane	0.00103	0.00176	0.00239	0.00403	0.00658	0.00931	0.0141
in cyclohexane	1.68e-07	2.73e-07	4.23e-07	7.31e-07	1.17e-06	1.82e-06	2.72e-06
